# Measured values: patent US20230070582A1, “UTILIZATION OF FGF ACTIVATORS IN CULTURE MEDIA” (Yissum Research Development Company of the Hebrew …, priority 2020, published 2023)
# Tests used:
# FGF pathway = conditions: by activating ERK pathway; zebrafish heart model; Molina et al. 2009; cited from earlier work
# ovine fibroblasts = experiment: XTT cell proliferation assay, ovine fibroblasts 2D culture, gradient concentrations; assay type: cell-based; conditions: FIG. 3
# Method: The effects of gradient concentration of both small molecules (ID-8 and FK-506) in ranges from about 1-50 μM for ID-8 and about 1-50 nM for FK-506 were tested on ovine fibroblasts 2D culture. Ovine fibroblasts were seeded in 96-well plate at a density of 1000 cells/well. ID-8 and FK-506 in serum free medium were incubated with the fibroblast cells for 48 hours before adding XTT (cell proliferation assay from Biological Industries, Israel) according to company protocol. Colorimetric signal was measured after 8 hours of XTT addition. Blank (medium only) measurements were subtracted from the sample measurements (n=4).
# mouse ESCs = conditions: serum-free culture; Miyabayashi et al. 2008; cited from earlier work
# [1] = tested on: Bovine fibroblasts adapted to suspension culture; experiment: Bovine fibroblast cell growth in serum-free suspension culture, cell count on Day 3; assay type: cell-based; conditions: Day 3 count, FIG. 1
# Method: Effects of ID-8 and/or FK-506 (alone or combined) on bovine fibroblast cell growth were evaluated. Bovine fibroblasts adapted to suspension culture were seeded in 0.3 millions/ml in a total volume of 20 ml in cell culture flasks. The flasks were kept in a shaker incubator with 100 rpm, 37° C., and 5% CO2. Cell counts were done on Day 3 using automatic cell counter (Cellaca®) with APOI staining to eliminate the dead cells from the counts.
smiles,measurement,setting,value
Cl.O=C1/C(=C/c2ccccc2)C(NC2CCCCC2)c2ccccc21 (mixture of isomers) [(E/Z)-BCI hydrochloride],effect on FGF pathway,FGF pathway,hyperactivates FGF pathway
COc1ccc(-n2c(C)c([N+](=O)[O-])c3ccc(O)cc32)cc1 [ID-8],ovine fibroblast cell growth versus control (no FGF),"ovine fibroblasts; higher concentrations of ID-8, e.g. 10 μM or 50 μM",more cell growth than the control
same,concentration of ID-8 giving the best cell growth (optimal concentration),"ovine fibroblasts; in combination with FK-506, 48 hours",1 to 5 µM
same,self-renewal of mouse ESCs,mouse ESCs,support self-renewal
same,effect on bovine fibroblast cell growth as compared to FGF (10 ng/ml),[1]; ID-8 alone 1 μM,comparable effect
"C=CC[C@@H]1/C=C(\C)C[C@H](C)C[C@H](OC)[C@H]2O[C@@](O)(C(=O)C(=O)N3CCCC[C@H]3C(=O)O[C@H](/C(C)=C/[C@@H]3CC[C@@H](O)[C@H](OC)C3)[C@H](C)[C@@H](O)CC1=O)[C@H](C)C[C@@H]2OC [FK-506, Tacrolimus]",effect on ovine fibroblast cell growth,"ovine fibroblasts; higher concentration of FK-506, e.g. 5 nM, 20 nM or 50 nM, with ID-8 at 1 μM",did not show significant effect on cell growth
same,concentration of FK-506 giving the best cell growth (optimal concentration),"ovine fibroblasts; in combination with ID-8, 48 hours",1 to 2 nM
same,effect on bovine fibroblast cell growth as compared to FGF (10 ng/ml),[1]; FK-506 alone 2 nM,didn't obtain a comparable effect
